The supplement of paper PMC9663587

Columns and labels:
BSJ-03-123 = compound: CC(=O)c1c(C)c2cnc(Nc3ccc(N4CCN(CCOCCOCCOCCNC(=O)COc5cccc6c5C(=O)N(C5CCC(=O)NC5=O)C6=O)CC4)cn3)nc2n(C2CCCC2)c1=O [BSJ-03-123]; experiment: increase in dead-cell fraction, 72 h; higher = more death;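 also: breast cancer cell lines in 384-well plates, stained with Hoechst plus LIVE/DEAD far red dye and imaged, cells above an LDR intensity threshold counted dead, Hoechst-negative corpses included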
[1] = compound: CC(=O)c1c(C)c2cnc(Nc3ccc(N4CCNCC4)cn3)nc2n(C2CCCC2)c1=O; experiment: as above
[2] = compound: CCN1CCN(Cc2ccc(Nc3ncc(F)c(-c4cc(F)c5nc(C)n(C(C)C)c5c4)n3)nc2)CC1; experiment: as above
Neratinib/HKI272 = compound: CCOc1cc2ncc(C#N)c(Nc3ccc(OCc4ccccn4)c(Cl)c3)c2cc1NC(=O)/C=C/CN(C)C [Neratinib/HKI272]; experiment: as above
[3] = compound: CCc1cnn2c(NCc3ccc[n+]([O-])c3)cc(N3CCCC[C@H]3CCO)nc12; experiment: as above
LEE011/Ribociclib = compound: CN(C)C(=O)c1cc2cnc(Nc3ccc(N4CCNCC4)cn3)nc2n1C1CCCC1 [LEE011/Ribociclib]; experiment: as above
THZ1 [4] = compound: T1, CN(C)C/C=C/C(=O)Nc1ccc(C(=O)Nc2cccc(Nc3ncc(Cl)c(-c4c[nH]c5ccccc45)n3)c2)cc1 [THZ1]; experiment: as above
Flavopiridol [5] = compound: T2, CN1CC[C@H](c2c(O)cc(O)c3c(=O)cc(-c4ccccc4Cl)oc23)[C@H](O)C1 [Flavopiridol]; experiment: as above
[6] = compound: CC(=O)c1c(C)c2cnc(Nc3ccc(N4CCNCC4)cn3)nc2n(C2CCCC2)c1=O; experiment: GR value, 72 h; higher = faster growth (1 = untreated, <0 = killing);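 also: breast cancer and non-malignant breast epithelial lines, nine half-log doses, viable cells counted by Hoechst and LIVE/DEAD dye imaging versus time-zero plates and DMSO controls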
THZ531 = compound: CN(C)C/C=C/C(=O)Nc1ccc(C(=O)N2CCC[C@@H](Nc3ncc(Cl)c(-c4c[nH]c5ccccc45)n3)C2)cc1 [THZ531]; experiment: as above
THZ1 [7] = compound: T1, THZ1; experiment: as above
Flavopiridol [8] = compound: T2, Flavopiridol; experiment: as above

HS578T
increase in dead-cell fraction (BSJ-03-123; 0.001 µM): 0.0192 | increase in dead-cell fraction (BSJ-03-123; 0.003162 µM): 0.0459 | increase in dead-cell fraction (BSJ-03-123; 0.01 µM): 0.0053 | increase in dead-cell fraction (BSJ-03-123; 0.03162 µM): 0.0194 | increase in dead-cell fraction (BSJ-03-123; 0.1 µM): 0.0184 | increase in dead-cell fraction (BSJ-03-123; 0.3162 µM): 0.0238 | increase in dead-cell fraction (BSJ-03-123; 1 µM): 0.034 | increase in dead-cell fraction (BSJ-03-123; 3.162 µM): 0.0445 | increase in dead-cell fraction (BSJ-03-123; 10 µM): 0.267 | increase in dead-cell fraction ([1]; 0.0003162 µM): -0.0068 | increase in dead-cell fraction ([1]; 0.001 µM): 0.0083 | increase in dead-cell fraction ([1]; 0.003162 µM): 0.0012 | increase in dead-cell fraction ([1]; 0.01 µM): 0.0138 | increase in dead-cell fraction ([1]; 0.03162 µM): 0.0151 | increase in dead-cell fraction ([1]; 0.1 µM): 0.0427 | increase in dead-cell fraction ([1]; 0.3162 µM): 0.052 | increase in dead-cell fraction ([1]; 1 µM): 0.0736 | increase in dead-cell fraction ([1]; 3.162 µM): 0.116 | increase in dead-cell fraction ([2]; 0.001 µM): 0.0038 | increase in dead-cell fraction ([2]; 0.003162 µM): 0.0096 | increase in dead-cell fraction ([2]; 0.01 µM): 0.0242 | increase in dead-cell fraction ([2]; 0.03162 µM): 0.0401 | increase in dead-cell fraction ([2]; 0.1 µM): 0.0754 | increase in dead-cell fraction ([2]; 0.3162 µM): 0.0958 | increase in dead-cell fraction ([2]; 1 µM): 0.171 | increase in dead-cell fraction ([2]; 3.162 µM): 0.511 | increase in dead-cell fraction ([2]; 10 µM): 0.844 | increase in dead-cell fraction (Neratinib/HKI272; 0.0003162 µM): 0.0023 | increase in dead-cell fraction (Neratinib/HKI272; 0.001 µM): 0.0036 | increase in dead-cell fraction (Neratinib/HKI272; 0.003162 µM): 0.0026 | increase in dead-cell fraction (Neratinib/HKI272; 0.01 µM): 0.0046 | increase in dead-cell fraction (Neratinib/HKI272; 0.03162 µM): 0.0039 | increase in dead-cell fraction (Neratinib/HKI272; 0.1 µM): 0.0039 | increase in dead-cell fraction (Neratinib/HKI272; 0.3162 µM): 0.0303 | increase in dead-cell fraction (Neratinib/HKI272; 1 µM): 0.061 | increase in dead-cell fraction (Neratinib/HKI272; 3.162 µM): 0.5 | increase in dead-cell fraction ([3]; 0.0001 µM): 0.0032 | increase in dead-cell fraction ([3]; 0.0003162 µM): -0.0013 | increase in dead-cell fraction ([3]; 0.001 µM): 0.0026 | increase in dead-cell fraction ([3]; 0.003162 µM): 0.0085 | increase in dead-cell fraction ([3]; 0.01 µM): 0.187 | increase in dead-cell fraction ([3]; 0.03162 µM): 0.415 | increase in dead-cell fraction ([3]; 0.1 µM): 0.441 | increase in dead-cell fraction ([3]; 0.3162 µM): 0.423 | increase in dead-cell fraction ([3]; 1 µM): 0.443 | increase in dead-cell fraction (LEE011/Ribociclib; 0.001 µM): 0.0899 | increase in dead-cell fraction (LEE011/Ribociclib; 0.003162 µM): 0.0789 | increase in dead-cell fraction (LEE011/Ribociclib; 0.01 µM): 0.105 | increase in dead-cell fraction (LEE011/Ribociclib; 0.03162 µM): 0.0986 | increase in dead-cell fraction (LEE011/Ribociclib; 0.1 µM): 0.196 | increase in dead-cell fraction (LEE011/Ribociclib; 0.3162 µM): 0.2 | increase in dead-cell fraction (LEE011/Ribociclib; 1 µM): 0.245 | increase in dead-cell fraction (LEE011/Ribociclib; 3.162 µM): 0.248 | increase in dead-cell fraction (LEE011/Ribociclib; 10 µM): 0.243 | increase in dead-cell fraction (THZ1 [4]; 0.0001 µM): -0.0022 | increase in dead-cell fraction (THZ1 [4]; 0.0003162 µM): 0.0144 | increase in dead-cell fraction (THZ1 [4]; 0.001 µM): 0.0176 | increase in dead-cell fraction (THZ1 [4]; 0.003162 µM): -0.0036 | increase in dead-cell fraction (THZ1 [4]; 0.01 µM): 0 | increase in dead-cell fraction (THZ1 [4]; 0.03162 µM): 0.11 | increase in dead-cell fraction (THZ1 [4]; 0.1 µM): 0.174 | increase in dead-cell fraction (THZ1 [4]; 0.3162 µM): 0.216 | increase in dead-cell fraction (THZ1 [4]; 1 µM): 0.22 | increase in dead-cell fraction (Flavopiridol [5]; 0.0001 µM): 0.0048 | increase in dead-cell fraction (Flavopiridol [5]; 0.0003162 µM): -0.0091 | increase in dead-cell fraction (Flavopiridol [5]; 0.001 µM): 0.0178 | increase in dead-cell fraction (Flavopiridol [5]; 0.003162 µM): -0.0177 | increase in dead-cell fraction (Flavopiridol [5]; 0.01 µM): 0.0333 | increase in dead-cell fraction (Flavopiridol [5]; 0.03162 µM): -0.0109 | increase in dead-cell fraction (Flavopiridol [5]; 0.1 µM): 0.0094 | increase in dead-cell fraction (Flavopiridol [5]; 0.3162 µM): 0.0312 | increase in dead-cell fraction (Flavopiridol [5]; 1 µM): 0.288 | GR value ([6]; 0.0003162 µM): 1.07 GR | GR value ([6]; 0.001 µM): 0.988 GR | GR value ([6]; 0.003162 µM): 0.928 GR | GR value ([6]; 0.01 µM): 0.764 GR | GR value ([6]; 0.03162 µM): 0.666 GR | GR value ([6]; 0.1 µM): 0.569 GR | GR value ([6]; 0.3162 µM): 0.481 GR | GR value ([6]; 1 µM): 0.423 GR | GR value ([6]; 3.162 µM): 0.302 GR | GR value (THZ531; 0.0001 µM): 1.04 GR | GR value (THZ531; 0.0003162 µM): 0.978 GR | GR value (THZ531; 0.001 µM): 1 GR | GR value (THZ531; 0.003162 µM): 1.03 GR | GR value (THZ531; 0.01 µM): 0.993 GR | GR value (THZ531; 0.03162 µM): 0.798 GR | GR value (THZ531; 0.1 µM): 0.051 GR | GR value (THZ531; 0.3162 µM): -0.213 GR | GR value (THZ531; 1 µM): -0.252 GR | GR value (THZ1 [7]; 0.0001 µM): 0.977 GR | GR value (THZ1 [7]; 0.0003162 µM): 1.03 GR | GR value (THZ1 [7]; 0.001 µM): 0.99 GR | GR value (THZ1 [7]; 0.003162 µM): 1.03 GR | GR value (THZ1 [7]; 0.01 µM): 0.784 GR | GR value (THZ1 [7]; 0.03162 µM): 0.125 GR | GR value (THZ1 [7]; 0.1 µM): -0.199 GR | GR value (THZ1 [7]; 0.3162 µM): -0.251 GR | GR value (THZ1 [7]; 1 µM): -0.371 GR | GR value (Flavopiridol [8]; 0.0001 µM): 1 GR | GR value (Flavopiridol [8]; 0.0003162 µM): 1.01 GR | GR value (Flavopiridol [8]; 0.001 µM): 0.977 GR | GR value (Flavopiridol [8]; 0.003162 µM): 0.969 GR | GR value (Flavopiridol [8]; 0.01 µM): 0.95 GR | GR value (Flavopiridol [8]; 0.03162 µM): 0.923 GR | GR value (Flavopiridol [8]; 0.1 µM): 0.711 GR | GR value (Flavopiridol [8]; 0.3162 µM): 0.107 GR | GR value (Flavopiridol [8]; 1 µM): -0.265 GR
